Data from patent US9688673B2, “Deoxycytidine kinase binding compounds” (THE REGENTS OF THE UNIVERSITY OF CALIFORNIA, priority 2011, dated 2017).
“Also recorded” adds a separate entry of the source.

Tests used:
[1] = target: T1, dCK activity (Mus musculus, UniProt P43346); test: Inhibition of dCK activity in vivo by 18F-FAC PET/CT imaging; conditions: mice
T1 construct: dCK expressing tissues such as Thymus (Thy), Bone marrow (BM), spleen (S) and the GI tract; from tissue; host or cells: living mice: thymus, bone marrow, spleen, GI tract
T1 sequence (P43346 whole entry): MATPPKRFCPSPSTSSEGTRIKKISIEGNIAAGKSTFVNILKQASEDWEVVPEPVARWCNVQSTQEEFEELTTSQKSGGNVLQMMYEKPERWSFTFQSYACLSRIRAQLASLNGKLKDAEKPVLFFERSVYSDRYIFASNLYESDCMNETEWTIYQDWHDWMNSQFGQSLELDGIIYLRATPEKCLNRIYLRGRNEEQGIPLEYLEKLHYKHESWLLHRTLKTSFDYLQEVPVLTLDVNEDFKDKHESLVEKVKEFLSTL
Protocol: Mice were treated with the dCK inhibitor and scanned at indicated time points by ^18F-FAC PET/CT to non-invasively determine dCK activity in vivo, throughout the body. ^18F-FAC PET/CT scans were performed as described in Shu, C. J. et al., “Novel PET probes specific for deoxycytidine kinase” J. Nucl.

[2] = test system: CCRF-CEM (CEM) human acute T lymphoblastic leukemia; test: S-phase arrest by flow cytometry, CEM cells; assay type: cell-based
Protocol: (§1) At the end of the incubation period cells were analyzed by flow cytometry to determine the effects of the treatment on cell cycle progression.

[3] = test system: NALM-6 human acute B lymphoblastic leukemia; test: S-phase arrest by flow cytometry, NALM-6 cells; assay type: cell-based
Protocol: as §1

[4] = test system: IGROV1 human ovarian adenocarcinoma; test: S-phase arrest by flow cytometry, IGROV1 cells; assay type: cell-based
Protocol: as §1

[5] = test system: CCRF-CEM (CEM) human acute T lymphoblastic leukemia; test: Leukemic cell proliferation and viability, CEM cells, 72 hours; assay type: cell-based
Protocol: Addition of 2.5 μM dC rescued the cell cycle from the thymidine block by the salvage pathway.

[6] = test system: CEM shC cells; test: Growth of CEM cells treated with dT and/or dC over 7 days; assay type: cell-based, human; conditions: period of 7 days
From the text: Compound F2.2.1 was not used in “Mock” experiments in either panel A or B.

[7] = test system: Primary murine T cells; test: In vitro T lymphocyte proliferation (CFSE, flow cytometry); assay type: cell-based, C57/BL6 mice; conditions: 1 μM final concentration, 72 hours after activation
Protocol: Primary murine T cells were obtained from C57/BL6 mice. […] Prior to antibody-mediated activation, T cells were labeled with the fluorescent dye CFSE to allow measurements of cell division. […] The dCK inhibitors were used at 1 μM final concentration.

[8] = test system: A549 human lung adenocarcinoma cells; test: Cell proliferation and viability, A549 cells, 72 hours; conditions: 1 μM F2.2.1 + 1 mM dT
Protocol: At the end of the incubation period cells were analyzed by flow cytometry to determine the effects of the treatment on cell proliferation and viability.

[9] = test system: NALM-6 human acute B lymphoblastic leukemia; test: Cell proliferation and viability, NALM-6 cells, 72 hours; conditions: 1 μM F2.2.1 + 1.6 mM dT, media with 1.25 μM deoxycytidine
Protocol: At the end of the incubation period cells were analyzed by flow cytometry to determine the effects of the treatment on leukemic cell proliferation and viability.

[10] = target: deoxycytidine kinase (dCK) (Homo sapiens, UniProt P27707); test: Inhibition of [3H]-deoxycytidine (dCyd) uptake by CEM cells; conditions: for Inhibition of [3H]-dCyd uptake by CEM cells, in words: ranking within panel / compared with DI-0105, DI-0110 and DI-0120
Chain of deoxycytidine kinase (dCK) (P27707 whole entry): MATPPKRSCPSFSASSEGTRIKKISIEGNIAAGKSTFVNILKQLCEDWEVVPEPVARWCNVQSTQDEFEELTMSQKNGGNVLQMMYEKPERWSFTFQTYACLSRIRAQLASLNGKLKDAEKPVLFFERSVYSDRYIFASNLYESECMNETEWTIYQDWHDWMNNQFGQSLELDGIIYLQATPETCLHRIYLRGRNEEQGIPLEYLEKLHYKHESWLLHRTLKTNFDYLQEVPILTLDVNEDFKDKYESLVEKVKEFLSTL
Protocol: Potency of dCK inhibitory activities of the compounds can be tested by measuring cellular substrate uptake and phosphorylation, for examples, uptake of [^3H]-deoxycytidine (dCyd or dC) into CEM (human) or L1210 (mouse) cells.
50,000 CEM cells/well were added to Millipore MultiScreen GV 96 well plates. Cells were resuspended at 1×10^6 cells/mL and incubated for 30 minutes at 37° C. The drug dilution plate was prepared by starting with an initial drug concentration of 10 mM in DMSO, and proceeding to make 1:5 dilutions for drug. 10 mL of drug was added to 40 mL DMSO and mixed by pipetting 10 times before removing 10 uL for next well (1:5 serial dilutions). The media and tritiated deoxycytidine was mixed together. 245 mL of media/probe mixture was added to each well of an Optiplate. 5 mL from drug plate was added to each well in the Optiplate to obtain drug/media/probe mixture and mixed. 50 mL of drug/media/probe mixture from Optiplate was added to the cell plate and incubate at 37° C. for 1 hour. The cell plate was placed on vacuum to aspirate, and then washed with ice cold PBS: 200 mL 1×PBS 4 times. The backing of the plate was peeled off, and the plate was placed in dryer for at least 30 minutes or until dry at 37° C. 100 mL Scintillation fluid per well was added, and the plate was sealed with clear plate seal. The plate was read on the Microbeta instrument.

[11] = test system: thymidine (dT) uptake; test: Inhibition of thymidine (dT) uptake (selectivity vs. dC uptake); conditions: read-out: dCKi IC50 dT
From the text: Potency of dCK inhibitory activities of the compounds can be tested by measuring cellular substrate uptake and phosphorylation, for examples, uptake of [^3H]-deoxycytidine (dCyd or dC) into CEM (human) or L1210 (mouse) cells. The compounds may be further screened for low off-target toxicity (e.g., inhibition of growth and proliferation of dCK negative cells) and selectivity over other nucleoside kinases (e.g., thymidine kinase).

In the case of `COc1ccc(-c2nc(CSc3nc(N)cc(N)n3)c(C)s2)cc1OCCF` [Compound F2.2.1], the “Duration of inhibition of dCK activity in vivo in multiple tissues” value ([1]; 200 mg/kg oral gavage) is reported as “at least 2 hours”, the “18F-FAC signals in dCK expressing tissues” value ([1]; Thymus, Bone marrow, spleen and GI tract) is reported as “Significant decrease” and the “18F-FAC signals in the bladder” value ([1]; bladder, probe clearance organ) is reported as “not affected”. The “dT + dCKi % S-phase arrest (of cells in cycle)” value (“dT + dCKi % S-phase arrest” below) ([2]; 50 mM dT + 1 mM F2.2.1, 24 hours) was 84.5%, the “dT + dCKi % S-phase arrest” value ([3]; NALM-6, 1.6 mM dT + 1 mM F2.2.1, 24 hours) was 79.8% and the “dT + dCKi % S-phase arrest” value ([4]; IGROV1, 1 mM dT + 1 mM F2.2.1, 24 hours) was 60.3%. For the same compound, the “Growth / proliferation of CEM cells, combination with thymidine” value ([5]; 1 μM F2.2.1 + 50 μM dT) was “almost completely shut down the growth of CEM cells; also recorded: significantly reduce the proliferation”, the “Effect on cell viability, compound alone” value ([5]; 1 μM alone) was “little effect on cell viability” and the “Growth of thymidine (dT) treated CEM cells” value [6] was “completely suppressed the growth”. The T cell proliferation [7] was “significantly blocks T cell proliferation”, the “Proliferation of A549 cells, combination with thymidine” value [8] was “significantly reduce the proliferation” and the “Proliferation of NALM-6 cells, combination with thymidine” value [9] was “significantly reduce the proliferation”. The “Inhibition of [3H]-dCyd uptake by CEM cells, in words” value (from here on “Inhibition of [3H]-dCyd uptake”) [10] was “superior activities” and the IC50 [11] was 4.93 µM.

In the case of `CCCc1sc(-c2ccc(OC)c(OCCO)c2)nc1CSc1nc(N)cc(N)n1` [DI-26], the T cell proliferation [7] is reported as “significantly blocks T cell proliferation”.

In the case of `CCCc1sc(-c2ccc(OC)c(OCCO)c2)nc1CSc1nccc(N)n1` [DI-27], the “Inhibition of [3H]-dCyd uptake” value [10] is reported as “among the most potent compounds in this panel”.

`CCCc1sc(-c2cccc(OCCO)c2)nc1CSc1nc(N)cc(N)n1` [DI-29] was tested, and the “Inhibition of [3H]-dCyd uptake” value [10] was “among the most potent compounds in this panel”.

With `CCCc1sc(-c2ccnc(OCCO)c2)nc1CSc1nc(N)cc(N)n1` [DI-30] the EC50 [10] was 2.5 nM and the “Inhibition of [3H]-dCyd uptake” value [10] was “among the most potent compounds in this panel; also recorded: superior activities”.

With `CCOc1ccc(-c2nc(CSc3nc(N)cc(N)n3)cs2)cc1OC` [DI-0105] the EC50 [10] was 133 nM.

With `COc1ccc(-c2nc(CSc3nc(N)cc(N)n3)cs2)cc1` [DI-0110] the EC50 [10] was 478 nM.

Work on `COc1ccc(Br)cc1-c1nc(CSc2nc(N)cc(N)n2)cs1` [DI-0120] yielded an EC50 [10] of 779 nM.

For `Cc1cn([C@H]2C[C@H](O)[C@@H](CO)O2)c(=O)[nH]c1=O` [dT, thymidine, reference compound], the “dT without dCKi % S-phase arrest (of cells in cycle)” value (“dT without dCKi % S-phase arrest” for short) ([2]; 50 mM dT, 24 hours) was 36%, the “dT without dCKi % S-phase arrest” value ([3]; NALM-6, 1.6 mM dT, 24 hours) was 52% and the “dT without dCKi % S-phase arrest” value ([4]; IGROV1, 1 mM dT, 24 hours) was 35.9%. For the same compound, the “Cell growth and cell cycle, thymidine alone” value ([5]; dT at 50 μM) was “suppressed cell growth but failed to shut down the cell cycle”.

In the case of `Nc1ccn([C@H]2C[C@H](O)[C@@H](CO)O2)c(=O)n1` [deoxycytidine (dC), deoxycytidine], the “Number of viable cells relative to vehicle control, deoxycytidine” value ([5]; 2.5 μM dC) is reported as “decreased the number of viable cells”.
